These results are taken from patent US8669274B2, “Metalloenzyme inhibitor compounds” (Viamet Pharmaceuticals, Inc., priority 2010, dated 2014).

For experiment [1], the target named is T1, CYP17 (Rattus norvegicus, UniProt P11715).
T1 construct: from tissue; host or cells: pooled rat testicular microsomes
T1 sequence (P11715 1-507): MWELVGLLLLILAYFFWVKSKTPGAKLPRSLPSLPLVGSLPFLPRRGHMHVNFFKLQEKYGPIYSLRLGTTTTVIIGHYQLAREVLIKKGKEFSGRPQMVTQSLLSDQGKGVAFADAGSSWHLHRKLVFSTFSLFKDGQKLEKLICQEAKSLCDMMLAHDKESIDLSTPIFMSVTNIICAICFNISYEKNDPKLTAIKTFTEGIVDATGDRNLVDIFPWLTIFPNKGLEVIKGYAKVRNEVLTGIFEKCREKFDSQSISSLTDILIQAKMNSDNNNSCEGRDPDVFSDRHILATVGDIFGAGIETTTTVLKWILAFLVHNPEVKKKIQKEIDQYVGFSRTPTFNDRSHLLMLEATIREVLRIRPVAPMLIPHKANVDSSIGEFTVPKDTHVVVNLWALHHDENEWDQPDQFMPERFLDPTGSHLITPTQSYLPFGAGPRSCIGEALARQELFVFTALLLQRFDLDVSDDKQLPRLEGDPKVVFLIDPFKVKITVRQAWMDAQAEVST
Description: Inhibition of CYP17 (pooled rat testicular microsomes). The class given is biochemical. On the procedure:
CYP17 activity was assayed according to the following procedure. […] The individual test compound and isozyme inhibitor solutions were then diluted 20-fold with deionized water (50:950 v/v) to concentrations of 135, 27, 4.5, 0.9, 0.15, 0.03 and 0.005 μM. The percent of organic solvent attributable to the test compound or inhibitor mixture in the final reaction mixture is 1%. Pooled rat testicular microsome suspension (20 mg/mL) was diluted with phosphate buffer to obtain a 1.25 mg/mL suspension. A solution of NADPH was prepared in phosphate buffer at a concentration of 2.5×. A stock solution of the substrate was prepared in DMSO:MeCN (50:50 v/v), mixed, and diluted in phosphate buffer to obtain a single solution containing the substrate at 5 μM. The percent of organic solvent attributable to substrate mixture in the final reaction mixture is 1%. Substrate solution and microsome suspension were combined in a 1:1 volume ratio, mixed, and distributed to reaction wells of a PCR plate. Individual test compound or the inhibitor solution at each concentration was added to the wells and mixed by repetitive aspirate/dispense cycles. For active controls, blank test compound diluent was added in place of test compound solution. Reaction mixtures were allowed to equilibrate at 37° C. for approximately two minutes before adding NADPH solution to initiate reaction, followed by pipette mixing of reaction mixture.

Experiment [2] concerns the target CYP2C19 (Homo sapiens, UniProt P33261). Description: Inhibition of liver cytochrome P450 enzymes (pooled human liver microsomes), CYP2C19.
Experiment [3] concerns the target CYP3A4 (Homo sapiens, UniProt P08684). Description: Inhibition of liver cytochrome P450 enzymes (pooled human liver microsomes), CYP3A4. On the technique in general: Liver microsomes are vesicles of endoplasmic reticulum, rich in cytochrome P450 enzymes.
In experiment [4] the target is CYP2C9 (Homo sapiens, UniProt P11712). Description: Inhibition of liver cytochrome P450 enzymes (pooled human liver microsomes), CYP2C9.
CYP2C9, sequence (P11712 whole entry): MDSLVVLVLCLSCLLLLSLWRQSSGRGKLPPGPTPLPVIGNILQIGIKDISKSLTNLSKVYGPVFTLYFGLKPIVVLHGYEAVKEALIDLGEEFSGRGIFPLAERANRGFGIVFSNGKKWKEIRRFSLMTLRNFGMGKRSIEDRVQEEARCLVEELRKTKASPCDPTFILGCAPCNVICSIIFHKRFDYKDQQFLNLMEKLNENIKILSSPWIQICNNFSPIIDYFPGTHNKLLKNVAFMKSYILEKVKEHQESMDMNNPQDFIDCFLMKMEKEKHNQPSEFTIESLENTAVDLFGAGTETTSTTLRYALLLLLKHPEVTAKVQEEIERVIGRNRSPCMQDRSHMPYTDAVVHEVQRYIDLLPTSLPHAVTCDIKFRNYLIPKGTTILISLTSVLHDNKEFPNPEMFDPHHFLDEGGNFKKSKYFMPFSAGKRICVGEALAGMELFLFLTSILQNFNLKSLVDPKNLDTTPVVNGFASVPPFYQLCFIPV

Bounds are passed on as bounds.

CYP3A4, sequence (P08684 whole entry): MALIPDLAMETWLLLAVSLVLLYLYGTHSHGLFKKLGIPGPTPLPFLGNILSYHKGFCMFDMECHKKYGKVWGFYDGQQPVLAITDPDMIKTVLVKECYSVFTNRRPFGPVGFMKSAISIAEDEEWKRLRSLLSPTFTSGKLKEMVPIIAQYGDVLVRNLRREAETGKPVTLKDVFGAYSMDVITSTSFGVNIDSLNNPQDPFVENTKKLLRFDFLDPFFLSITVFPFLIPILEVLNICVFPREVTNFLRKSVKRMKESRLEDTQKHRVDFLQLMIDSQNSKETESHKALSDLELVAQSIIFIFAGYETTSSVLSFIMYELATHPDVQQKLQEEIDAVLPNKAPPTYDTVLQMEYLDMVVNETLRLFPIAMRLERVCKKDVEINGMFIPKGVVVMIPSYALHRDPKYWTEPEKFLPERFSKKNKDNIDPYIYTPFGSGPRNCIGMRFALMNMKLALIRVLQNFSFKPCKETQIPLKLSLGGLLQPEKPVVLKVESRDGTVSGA
CYP2C19, sequence (P33261 whole entry): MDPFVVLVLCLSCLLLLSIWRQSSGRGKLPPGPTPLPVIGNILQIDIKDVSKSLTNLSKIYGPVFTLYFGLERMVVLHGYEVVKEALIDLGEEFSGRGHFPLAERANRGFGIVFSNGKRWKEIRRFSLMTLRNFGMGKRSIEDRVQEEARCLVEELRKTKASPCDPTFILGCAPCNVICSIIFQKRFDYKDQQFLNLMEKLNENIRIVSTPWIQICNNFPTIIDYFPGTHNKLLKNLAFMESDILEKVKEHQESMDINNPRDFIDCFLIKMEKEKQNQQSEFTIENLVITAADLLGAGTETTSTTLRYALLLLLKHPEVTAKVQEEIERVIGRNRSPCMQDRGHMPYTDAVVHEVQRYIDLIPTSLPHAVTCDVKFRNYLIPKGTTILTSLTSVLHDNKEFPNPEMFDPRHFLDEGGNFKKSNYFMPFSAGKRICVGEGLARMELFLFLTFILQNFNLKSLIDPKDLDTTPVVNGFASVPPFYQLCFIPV

On to `CC(C)C(c1ccc2cc(OCC(F)(F)F)c(OCC(F)(F)F)cc2c1)n1ccnn1` (centres unmarked) [Example 2, 1-(1-(6,7-bis(2,2,2-trifluoroethoxy)naphthalen-2-yl)-2-methylpropyl)-1H-1,2,3-triazole], for which the IC50 in experiment [1] was 0.48 µM; in experiment [2], 4.4 µM; in experiment [3], greater than 60 µM; in experiment [4], 2.9 µM.
The corresponding values for `CC(C)C(c1ccc2cc(OCC(F)(F)F)ccc2n1)n1ccnn1` (centres unmarked) [Example 3, 2-(2-Methyl-1-(1H-1,2,3-triazol-1-yl)propyl)-6-(2,2,2-trifluoroethoxy)quinoline] are 0.03 µM, 5 µM, 19 µM and 3.2 µM.
In the same order, the values of `CC(C)C(c1ccc2cc(-c3ccc(F)cc3)ccc2n1)n1ccnn1` (centres unmarked) [Example 4, 6-(4-Fluorophenyl)-2-(2-methyl-1-(1H-1,2,3-triazol-1-yl)propyl)quinoline] are 0.042 µM, 31 µM, 84 µM and 24 µM.
Regarding `CC(=O)N1CCN(c2ccc(OCC3COC(Cn4ccnc4)(c4ccc(Cl)cc4Cl)O3)cc2)CC1` (centres unmarked) [Ketoconazole, ketoconazole, reference compound], the IC50 in experiment [1] turned out to be 0.4 µM. In other words, the sub-micromolar range.
Regarding `COc1cc2ccc(C(C(C)C)n3ccnn3)cc2cc1OC` (centres unmarked) [Example 1, 1-(1-(6,7-dimethoxynaphthalen-2-yl)-2-methylpropyl)-1H-1,2,3-triazole], the IC50 in experiment [1] came out at 0.05 µM; in experiment [2], 8.4 µM; in experiment [3], 11 µM; in experiment [4], 6.5 µM.

What is called IC50 is the concentration at which inhibition is half-maximal. A lower IC50 goes with greater potency.
